C1CNCCNCCNCCN1
solubility (mole fraction)
Details	298.15 K	303.15 K	308.15 K	313.15 K	318.15 K	323.15 K
in isopropanol	0.00193	0.00202	0.00213	0.00224	0.0023	0.00249
in methanol	0.00266	0.00268	0.00305	0.00318	0.00321	0.00328
